# Results as given in patent publication US11806393B2, “Flavivirus peptide sequences, epitopes, and methods and uses thereof” (priority 2017, dated 2023).
# System: CD44+CD62L- CD8+ T cells
# Experiment: ICS, peptide-immunized Ifnar-/- HLA-B*0702 mice challenged with ZIKV
# Type: cell-based, mouse
# Conditions: mice immunized with the 4 ZIKV/DENV cross-reactive peptides, day 3 after ZIKV challenge
# Excerpt: Two HLA-B*0702-binding ZIKV-specific peptides (FSS-NS2A133-141(SEQ ID NO: 41) and FSS/MR766-NS2B68-75 (SEQ ID NO: 45)) and four ZIKV/DENV cross-reactive peptides (FSS/MR766-NS4B426-435 (SEQ ID NO: 60), FSS/MR766-NS2A75-84 (SEQ ID NO: 39), FSS/MR766-NS3206-215 (SEQ ID NO: 47), and FSS/MR766-NS3574-582 (SEQ ID NO: 52)) were chosen for synthesis. Five HLA-A*0101-binding peptides (FSS/MR-E159-167 (SEQ ID NO: 70), FSS/MR-E195-203 (SEQ ID NO: 71), FSS/MR-NS123-31 (SEQ ID NO: 74), FSS/MR-NS4B231-239 (SEQ ID NO: 77), and FSS/MR-NS5509-517 (SEQ ID NO: 79)) were chosen for synthesis. Mice (both female and male; 5-6 weeks of age) were immunized subcutaneously with a mixture of HCV helper peptide (100 μg/mouse) and 3 or 4 HLA-B*0702-binding peptides (50 μg/peptide/mouse) emulsified in Complete Freund's Adjuvant (CFA). Mock group mice received the same immunization strategy but without any ZIKV-specific or ZIKV/DENV cross-reactive peptide. On the 21st day, mice were boosted with the same peptide mixtures emulsified in Incomplete Freund's Adjuvant (IFA). […] Three days post ZIKV infection mice were sacrificed, and serum and spleen were harvested. The splenocytes were used for ICS assay. After cardiac perfusion with PBS, brain was harvested. The levels of infectious ZIKV in serum and brain were measured using FFA.
# Spleens were harvested from virus-infected, mock-immunized, or peptide-immunized mice. 1×10^6 splenocytes were plated in each well of 96-well U-bottom plates and stimulated with individual peptide (10 μg crude peptide or 1 μg pure peptide per well) for 6 hours. Five hours before the end of incubation, Brefeldin A (GolgiPlug; BD Biosciences) and PE-conjugated anti CD107a mAb (clone 1D4B, eBioscience) were added to the cells. Splenocytes stimulated with PMA-ionomycin were used as the positive control, while cells without any stimulation were the negative control. […] Samples were run using an LSR™ II (BD Biosciences) and analyzed using FLOWJO™ software X 10.0.7 (Tree Star, Ashland, Oreg.).
# Peptide groups received corresponding peptide immunizations as described in Materials and Methods. […] CD3^+CD8^+CD44^+CD62L− T cells were gated and the percentages of IFNγ^+ and/or TNFα^+ cells in a representative mouse from mock (FIG. 12A) and peptide (FIG. 12B) groups were determined by ICS. The levels of infectious ZIKV in sera and brains were measured via FFA. Data were expressed as mean±SEM. *, P<0.05; **, P<0.01; ***, P<0.001. Two-tailed Mann-Whitney test.
row,Sequence,percentage of epitope-specific cells among antigen experienced (CD44+CD62L-) CD8+ T cells [%]
1,KPRWMDARV [FSS/MR-NS3574-582],0.84±0.39
2,RPALLVSFIF [FSS/MR-NS2A75-84],3.27±1.91
